Measured values published in ChEMBL document CHEMBL4823249, “Discovery of a Pyrimidinedione Derivative as a Potent and Orally Bioavailable Axl Inhibitor” (J Med Chem, 2021).

Legend:
U-87 MG = assay: Antitumor activity against human U-87MG cells xenografted in BALB/c nude mouse assessed as tumor growth inhibition at 50 mg/kg, po administered once daily for 14 days by caliper method; type: functional, U-87MG ATCC; settings: 336 h, time 14 day, read-out: TGI
[1] = target: T1, Tyrosine-protein kinase receptor UFO (Homo sapiens, UniProt P30530); assay: Inhibition of AXL (unknown origin) using poly [Glu, Tyr] 4:1 as substrate incubated for 60 mins in presence of ATP by ELISA
T1 sequence (P30530 whole entry): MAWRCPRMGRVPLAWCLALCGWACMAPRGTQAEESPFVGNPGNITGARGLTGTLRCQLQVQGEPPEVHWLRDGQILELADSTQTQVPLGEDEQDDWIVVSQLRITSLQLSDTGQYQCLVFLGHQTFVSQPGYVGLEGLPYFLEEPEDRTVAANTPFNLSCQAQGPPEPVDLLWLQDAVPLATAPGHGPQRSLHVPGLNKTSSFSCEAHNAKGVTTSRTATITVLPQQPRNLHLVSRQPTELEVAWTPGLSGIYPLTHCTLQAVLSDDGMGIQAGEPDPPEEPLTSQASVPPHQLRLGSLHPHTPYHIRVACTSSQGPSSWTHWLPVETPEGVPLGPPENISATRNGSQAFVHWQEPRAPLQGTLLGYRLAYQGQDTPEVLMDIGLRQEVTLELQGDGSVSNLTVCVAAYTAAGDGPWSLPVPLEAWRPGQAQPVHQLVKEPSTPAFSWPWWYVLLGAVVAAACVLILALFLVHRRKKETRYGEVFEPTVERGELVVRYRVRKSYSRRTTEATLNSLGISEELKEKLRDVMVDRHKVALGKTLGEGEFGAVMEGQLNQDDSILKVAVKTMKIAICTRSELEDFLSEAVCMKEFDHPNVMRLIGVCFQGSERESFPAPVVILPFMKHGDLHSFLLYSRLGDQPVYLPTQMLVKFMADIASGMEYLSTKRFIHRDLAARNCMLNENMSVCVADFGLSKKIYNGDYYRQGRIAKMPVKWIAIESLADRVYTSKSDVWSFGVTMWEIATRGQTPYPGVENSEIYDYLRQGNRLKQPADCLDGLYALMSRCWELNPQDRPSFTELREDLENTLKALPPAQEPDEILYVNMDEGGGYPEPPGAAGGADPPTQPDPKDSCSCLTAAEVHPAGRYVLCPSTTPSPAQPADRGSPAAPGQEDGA

BaF3 [2] = assay: Antiproliferative activity against mouse BaF3/TEL-AXL cells incubated for 72 hrs by SRB or CCK8 assay; settings: BaF3, 72 h
[3] = AUC(0 to t) in Sprague-Dawley rat at 3 mg/kg, po measured upto 24 hrs by LC-MS analysis; type: ADME, organism-based; set-up: route oral, dose 3 mg/kg, time <=24; settings: in vivo
[4] = AUC(0 to infinity) in Sprague-Dawley rat at 3 mg/kg, po measured upto 24 hrs by LC-MS analysis; type: ADME, organism-based; set-up: route oral, dose 3 mg/kg, time <=24; settings: in vivo
[5] = Half life in Sprague-Dawley rat at 3 mg/kg, po measured upto 24 hrs by LC-MS analysis; type: ADME, organism-based; settings: in vivo
[6] = Tmax in Sprague-Dawley rat at 3 mg/kg, po measured upto 24 hrs by LC-MS analysis; type: ADME, organism-based; settings: in vivo
[7] = Cmax in Sprague-Dawley rat at 3 mg/kg, po measured upto 24 hrs by LC-MS analysis; type: ADME, organism-based; set-up: route oral, dose 3 mg/kg, time <=24; settings: in vivo
BaF3 [8] = assay: Antitumor activity against mouse BaF3/TEL-AXL cells xenografted in BALB/c nude mouse assessed as tumor growth inhibition at 50 mg/kg, po administered once daily for 14 days by caliper method; type: functional; settings: 336 h, time 14 day, read-out: TGI

IC50 (BaF3 [2]) [nM] | SMILES | also measured
 | C[C@@H](Oc1cc(-c2cnn(C3CCNCC3)c2)cnc1N)c1c(Cl)ccc(F)c1Cl [CRIZOTINIB] | inhibition in vivo at 50 mg/kg (U-87 MG): 93.3%
 | Cn1cc(-c2cnccc2Oc2ccc(NC(=O)C3=C(c4ccccc4)c4ccccc4C3=O)cc2)cn1 | IC50 [1]: > 1000 nM
 | COc1cc(NC(=O)c2cn(C(C)C)c(=O)n(-c3ccc(F)cc3)c2=O)ccc1Oc1ccnc(-c2cnn(C)c2)c1 | IC50 [1]: > 1000 nM
7.6 | CCc1nc(C(N)=O)c(Nc2ccc(N3CCC(N4CCN(C)CC4)CC3)c(OC)c2)nc1NC1CCOCC1 [GILTERITINIB] | 
 | Cn1cc(-c2cnccc2Oc2ccc(NC(=O)c3c4c(cn(-c5ccccc5)c3=O)C(=O)CCC4)cc2)cn1 | IC50 [1]: > 1000 nM
2.8 | CC(C)n1cc(C(=O)Nc2ccc(Oc3ccnc(-c4cnn(CC(C)(C)O)c4)c3)c(F)c2)c(=O)n(-c2ccc(F)cc2)c1=O | 
19.5 | CC(C)n1cc(C(=O)Nc2ccc(Oc3ccnc(-c4cnn(CCN5CCN(C)CC5)c4)c3)c(F)c2)c(=O)n(-c2ccc(F)cc2)c1=O | 
< 0.2 | CC(=O)Nc1cc(Oc2ccc(NC(=O)c3cn(C(C)C)c(=O)n(-c4ccc(F)cc4)c3=O)cc2F)ccn1 | 
 | CCc1ccc2c(c1)c(=O)c(C(=O)Nc1ccc(Oc3ccncc3-c3cnn(C)c3)cc1)c(C)n2C | IC50 [1]: > 1000 nM
< 0.2 | CC(C)n1cc(C(=O)Nc2ccc(Oc3ccnc(-c4cn[nH]c4)c3)c(F)c2)c(=O)n(-c2ccc(F)cc2)c1=O | AUC(0-t) at 24 h [3]: 31600 ng·h/mL; AUC(0-inf) [4]: 52200 ng·h/mL; half-life [5]: 18.2 h; Tmax [6]: 1.67 h; Cmax [7]: 2570 ng/mL
< 0.2 | CCC(=O)Nc1cc(Oc2ccc(NC(=O)c3cn(C(C)C)c(=O)n(-c4ccc(F)cc4)c3=O)cc2F)ccn1 | 
43.2 | CC(C)n1cc(C(=O)Nc2ccc(Oc3ccnc(NC(=O)C4CCC4)c3)c(F)c2)c(=O)n(-c2ccc(F)cc2)c1=O | 
1 | Cc1nn(C)cc1-c1cc(Oc2ccc(NC(=O)c3cn(C(C)C)c(=O)n(-c4ccc(F)cc4)c3=O)cc2F)ccn1 | 
6.3 | CC(C)n1cc(C(=O)Nc2ccc(Oc3ccnc(-c4cnn(C5CC5)c4)c3)c(F)c2)c(=O)n(-c2ccc(F)cc2)c1=O | 
1.9 | CC(C)n1cc(C(=O)Nc2ccc(Oc3ccnc(-c4cnn(C)c4)c3)c(F)c2)c(=O)n(-c2ccc(F)cc2)c1=O | 
< 0.2 | CC(C)n1cc(C(=O)Nc2ccc(Oc3ccnc(NC(=O)N4CCOCC4)c3)c(F)c2)c(=O)n(-c2ccc(F)cc2)c1=O | 
< 0.2 | CC(C)n1cc(C(=O)Nc2ccc(Oc3ccnc(NC(=O)N4CCCC4)c3)c(F)c2)c(=O)n(-c2ccc(F)cc2)c1=O | 
117 | Nc1nc(Nc2ccc3c(c2)CC[C@@H](N2CCCC2)CC3)nn1-c1cc2c(nn1)-c1ccccc1CCC2 [BEMCENTINIB] | inhibition in vivo at 50 mg/kg (BaF3 [8]): 108%
 | CCOc1cn(-c2ccc(F)cc2)nc1C(=O)Nc1ccc(Oc2ccncc2-c2cnn(C)c2)cc1 | IC50 [1]: > 1000 nM
